From patent US20110009350A1, “Oil-in-Water Formulation of Avermectins” (priority 2005, published 2011)

Columns and labels:
[1] = Stability of Abamectin in water at various pH-values and temperatures, kept in the dark, HPLC; format: physicochemical
Protocol: The stability of Abamectin in water at various pH-values and temperatures was determined. 194.4 mg of Abamectin was dissolved in 10 ml methanol and 1 ml of the solution transferred to 100 ml of de-mineralised water and a part of this was transferred to a buffer solution. The sample was kept in the dark and the solution analysed using a HPLC.

[2] = Stability of Abamectin in water exposed to light (5000-6000 lux) at 25° C., HPLC; format: physicochemical
Protocol: The stability of Abamectin in water exposed to light at various pH-values was determined. 194.4 mg of Abamectin was dissolved in 10 ml methanol and 1 ml of the solution transferred to 100 ml of demineralised water and a part of this transferred to a buffer solution. The solution was exposed to light (5000-6000 lux) at 25° C. and analysed using a HPLC.

In the case of Abamectin, the “Abamectin concentration (ppm)” value ([1]; 25° C., 7 days, pH 4.0, dark) is reported as 3.130 ppm, the “Abamectin concentration (ppm)” value ([1]; 25° C., 7 days, pH 7.0, dark) is reported as 3.188 ppm and the “Abamectin concentration (ppm)” value ([1]; 25° C., 7 days, pH 9.0, dark) is reported as 3.005 ppm. The “Abamectin concentration (ppm)” value ([1]; 25° C., 14 days, pH 4.0, dark) was 2.782 ppm, the “Abamectin concentration (ppm)” value ([1]; 25° C., 14 days, pH 7.0, dark) was 3.040 ppm and the “Abamectin concentration (ppm)” value ([1]; 25° C., 14 days, pH 9.0, dark) was 2.596 ppm. For the same substance, the “Abamectin concentration (ppm)” value ([1]; 25° C., 21 days, pH 4.0, dark) was 2.566 ppm, the “Abamectin concentration (ppm)” value ([1]; 25° C., 21 days, pH 7.0, dark) was 2.829 ppm and the “Abamectin concentration (ppm)” value ([1]; 25° C., 21 days, pH 9.0, dark) was 2.380 ppm. The “Abamectin concentration (ppm)” value ([1]; 25° C., 28 days, pH 4.0, dark) was 2.524 ppm, the “Abamectin concentration (ppm)” value ([1]; 25° C., 28 days, pH 7.0, dark) was 2.676 ppm and the “Abamectin concentration (ppm)” value ([1]; 25° C., 28 days, pH 9.0, dark) was 2.287 ppm. For the same substance, the “Abamectin concentration (ppm)” value ([1]; 25° C., Initial, pH 4.0, dark) was 3.495 ppm, the “Abamectin concentration (ppm)” value ([1]; 25° C., Initial, pH 7.0, dark) was 3.327 ppm and the “Abamectin concentration (ppm)” value ([1]; 25° C., Initial, pH 9.0, dark) was 3.555 ppm. The “Abamectin concentration (ppm)” value ([1]; 50° C., 7 days, pH 4.0, dark) was 1.054 ppm, the “Abamectin concentration (ppm)” value ([1]; 50° C., 7 days, pH 7.0, dark) was 2.952 ppm and the “Abamectin concentration (ppm)” value ([1]; 50° C., 7 days, pH 9.0, dark) was 1.265 ppm. For the same substance, the “Abamectin concentration (ppm)” value ([1]; 50° C., 14 days, pH 4.0, dark) was 0.383 ppm, the “Abamectin concentration (ppm)” value ([1]; 50° C., 14 days, pH 7.0, dark) was 2.780 ppm and the “Abamectin concentration (ppm)” value ([1]; 50° C., 14 days, pH 9.0, dark) was 0.519 ppm. The “Abamectin concentration (ppm)” value ([1]; 50° C., 21 days, pH 4.0, dark) was 0.123 ppm, the “Abamectin concentration (ppm)” value ([1]; 50° C., 21 days, pH 7.0, dark) was 2.194 ppm and the “Abamectin concentration (ppm)” value ([1]; 50° C., 21 days, pH 9.0, dark) was 0.205 ppm. The “Abamectin concentration (ppm)” value ([1]; 50° C., 28 days, pH 4.0, dark) was 0.0609 ppm, the “Abamectin concentration (ppm)” value ([1]; 50° C., 28 days, pH 7.0, dark) was 1.949 ppm and the “Abamectin concentration (ppm)” value ([1]; 50° C., 28 days, pH 9.0, dark) was 0.0628 ppm. The “Abamectin concentration (ppm)” value ([1]; 50° C., Initial, pH 4.0, dark) was 3.495 ppm, the “Abamectin concentration (ppm)” value ([1]; 50° C., Initial, pH 7.0, dark) was 3.327 ppm and the “Abamectin concentration (ppm)” value ([1]; 50° C., Initial, pH 9.0, dark) was 3.555 ppm. The “Abamectin concentration (ppm)” value ([2]; 7 days, pH 4.0) was 2.923 ppm, the “Abamectin concentration (ppm)” value ([2]; 7 days, pH 7.0) was 2.941 ppm and the “Abamectin concentration (ppm)” value ([2]; 7 days, pH 9.0) was 3.163 ppm. The “Abamectin concentration (ppm)” value ([2]; 14 days, pH 4.0) was 2.332 ppm, the “Abamectin concentration (ppm)” value ([2]; 14 days, pH 7.0) was 2.529 ppm and the “Abamectin concentration (ppm)” value ([2]; 14 days, pH 9.0) was 2.810 ppm. For the same substance, the “Abamectin concentration (ppm)” value ([2]; 21 days, pH 4.0) was 1.961 ppm, the “Abamectin concentration (ppm)” value ([2]; 21 days, pH 7.0) was 2.223 ppm and the “Abamectin concentration (ppm)” value ([2]; 21 days, pH 9.0) was 2.360 ppm. The “Abamectin concentration (ppm)” value ([2]; 28 days, pH 4.0) was 1.666 ppm, the “Abamectin concentration (ppm)” value ([2]; 28 days, pH 7.0) was 2.034 ppm and the “Abamectin concentration (ppm)” value ([2]; 28 days, pH 9.0) was 2.173 ppm. For the same substance, the “Abamectin concentration (ppm)” value ([2]; Initial, pH 4.0) was 3.495 ppm, the “Abamectin concentration (ppm)” value ([2]; Initial, pH 7.0) was 3.327 ppm and the “Abamectin concentration (ppm)” value ([2]; Initial, pH 9.0) was 3.555 ppm.
